Measurements: patent US10519177B2, “Heterocyclic compounds and uses thereof” (Plexxikon Inc., priority 2013, dated 2019)
Read-outs that look alike come from different tables or passages of the source.

Assays:
bromodomain = assay: at least one of the bromodomain cell assays of Example 57; format: cell-based; conditions: read-out: IC50 in at least one of the bromodomain cell assays
MV-4-11 cells = assay: Oncology cell growth assay MV-4-11 (CellTiter Glo); format: cell-based
From the text: Published bromodomain inhibitors JQ1 and iBET 151 have shown activity in variety of cancer cells such leukemia and lymphoma, multiple myeloma cells, NUT midline carcinoma and glioblastoma cells (Dawson M A et al. 2011; Delmore J E 2011; Chen Z et al. 2013; Filippakopoulos P et al. 2010; Mertz J A et al. 2011; Ott C J et al. 2012). In this study, we test compounds in different cancer cell lines. MV-4-11 and MOLM-13 are AML cell lines harboring a MLL-AF4 and MLL-AF9 translocation, respectively. MM.1S is a multiple myeloma cell line. SK-N-AS, IMR-32 and SK-N-BE(2) are neuroblastoma cell lines. IMR-32 and SK-N-BE(2) cell lines harbor MYCN amplifications.
MV-4-11, MM.1S, IMR-32, SK-N-AS and SK-N-BE(2) were obtained from ATCC (IL, USA) and MOLM-13 were purchased from DSMZ (Braunschweig, German). Cells are cultured as recommended by their sources. For growth inhibition studies 3000 cells are seeded in wells of a 96-well plate in 75 μL of culture media. After several hours, growth media containing compounds of formula (I) are added to the wells. Compound at a maximal concentration of 5 mM was serially diluted 1:3 for a total of 8 point titration with DMSO as a control. A 1 μL aliquot of each dilution point is added to 249 μL growth media and 75 μL is added to each well containing cells, providing 10 μM compound at the maximum concentration point. The final concentration of DMSO in all wells is 0.2%. Cells are incubated for 72 hours, and 25 μL of CellTiter Glo Reagent (Promega GA, USA) is added to each well. Plates are shaken for approximately 10 minutes and chemiluminescent signal is read on Tecan microplate reader. The measured luminescence correlates directly with cell number.
All data is normalized to the mean of eight DMSO high control wells on each plate. A four parameter curve fit of the following formula was then applied: Y=a+(b−a)/(1+(x/c)^d) Where ‘a’ is the minimum, ‘b’ is the maximum, ‘c’ is the pIC50 and ‘d’ is the Hill slope. […] Myc Reporter Assay

[1] = at least one of the bromodomain cell assays described in Example 57
[2] = Homo sapiens, MV4-11, 72 h; read-out: Cell activity (IC50 μM) MV-4-11 3d-Growth
[3] = Homo sapiens, MV4-11, 72 h; MV-4-11, 3d growth; read-out: Cell activity (IC50 μM) MV-4-11 3d-Growth
[4] = Homo sapiens, MV4-11, 72 h, read-out: Cell activity (IC50 μM) MV-4-11 3d-Growth

With `CNC(=O)c1ccc(-c2cnc3ccn(CC4CCC(F)(F)CC4)c3c2)cn1` [P-0359, 5-[1-[(4,4-difluorocyclohexyl)methyl]pyrrolo[3,2-b]pyridin-6-yl]-N-methyl-pyridine-2-carboxamide] the IC50 (bromodomain; [1]) was under 10 µM and the IC50 (MV-4-11 cells; [2]) was 10 to 200 µM.

In the case of `[2H]c1c([2H])c([2H])c(C([2H])(n2cc(-c3ccc(C(=O)OC)cc3)c3ncc(-c4c(C)noc4C)cc32)C([2H])([2H])[2H])c([2H])c1[2H]` (stereo not drawn) [P-0605, methyl 4-[6-(3,5-dimethylisoxazol-4-yl)-1-[1,2,2,2-tetradideuterio-1-(2,3,4,5,6-pentadeuteriophenyl)ethyl]pyrrolo[3,2-b]pyridin-3-yl]benzoate], the IC50 (bromodomain; [1]) is reported as under 10 µM and the IC50 (MV-4-11 cells; [3]) is reported as under 1 µM.

With `Cc1noc(C)c1-c1cnc2c(-c3ccc(C(=O)O)cc3)cn(CC3CC4(CCC4)C3)c2c1` [P-0603, 4-[6-(3,5-dimethylisoxazol-4-yl)-1-(spiro[3.3]heptan-6-ylmethyl)pyrrolo[3,2-b]pyridin-3-yl]benzoic acid] the IC50 (bromodomain; [1]) was under 10 µM and the IC50 (MV-4-11 cells; [3]) was under 1 µM.

In the case of `[2H]C([2H])(C1CCC(F)(F)CC1)n1cc(-c2cnn(CC(F)(F)F)c2)c2ncc(-c3c(C)noc3C)cc21` [P-0221, 4-[1-[dideuterio-(4,4-difluorocyclohexyl)methyl]-3-[1-(2,2,2-trifluoroethyl)pyrazol-4-yl]pyrrolo[3,2-b]pyridin-6-yl]-3,5-dimethyl-isoxazole], the IC50 (bromodomain; [1]) is reported as under 10 µM and the IC50 (MV-4-11 cells; [2]) is reported as under 1 µM.

With `Cc1noc(C)c1-c1cnc2c(-c3ccc(C(=O)O)cc3)cn(C(C)c3ccccn3)c2c1` (stereo not drawn) [P-0369, 4-[6-(3,5-dimethylisoxazol-4-yl)-1-[1-(2-pyridyl)ethyl]pyrrolo[3,2-b]pyridin-3-yl]benzoic acid] the IC50 (bromodomain) was under 10 µM and the IC50 (MV-4-11 cells; [4]) was under 1 µM.

Work on `Cc1noc(C)c1-c1cnc2c(-c3ccc(C(=O)O)cc3)cn([C@H](C)c3ccccn3)c2c1` [P-0510, 4-[6-(3,5-dimethylisoxazol-4-yl)-1-[(1R)-1-(2-pyridyl)ethyl]pyrrolo[3,2-b]pyridin-3-yl]benzoic acid] yielded an IC50 (bromodomain) of under 10 µM and an IC50 (MV-4-11 cells; [4]) of under 1 µM.

`Cc1noc(C)c1-c1cnc2c(-c3ccc(C(F)F)cc3)cn(CC3CCC(F)(F)CC3)c2c1` [P-0608, 4-[1-[(4,4-difluorocyclohexyl)methyl]-3-[4-(difluoromethyl)phenyl]pyrrolo[3,2-b]pyridin-6-yl]-3,5-dimethyl-isoxazole] was tested, and the IC50 (bromodomain; [1]) was under 10 µM and the IC50 (MV-4-11 cells; [3]) was under 1 µM.

`COc1ccc(-c2cnc3c(-c4cnn(C(F)F)c4)cn(CC4CCC(F)(F)CC4)c3c2)cn1` [P-0358, 1-[(4,4-difluorocyclohexyl)methyl]-3-[1-(difluoromethyl)pyrazol-4-yl]-6-(6-methoxy-3-pyridyl)pyrrolo[3,2-b]pyridine] gave an IC50 (bromodomain; [1]) of under 10 µM and an IC50 (MV-4-11 cells; [2]) of 10 to 200 µM.

Work on `[2H]c1c([2H])c([2H])c(C([2H])(n2cc(-c3cnn(CC(F)(F)F)c3)c3ncc(-c4c(C)noc4C)cc32)C([2H])([2H])[2H])c([2H])c1[2H]` (stereo not drawn) [P-0606] yielded an IC50 (bromodomain; [1]) of under 10 µM and an IC50 (MV-4-11 cells; [3]) of under 1 µM.

For `Cc1noc(C)c1-c1cnc2c(-c3cnn(C)c3)cn(C(=O)C3CCC(F)(F)CC3)c2c1` [P-0208], the IC50 (bromodomain; [1]) was under 10 µM and the IC50 (MV-4-11 cells; MV-4-11 3d-Growth; read-out: Cell activity (IC50 μM) MV-4-11 3d-Growth) was 1 to 10 µM.

Molecule `Cc1noc(C)c1-c1cnc2c(-c3ccc(C(C)(C)C(=O)O)cc3)cn(CC3(C)CCCCC3)c2c1` [P-0783, 2-[4-[6-(3,5-dimethylisoxazol-4-yl)-1-[(1-methylcyclohexyl)methyl]pyrrolo[3,2-b]pyridin-3-yl]phenyl]-2-methyl propanoic acid] has an IC50 (bromodomain; [1]) of under 10 µM.

In the case of `Cc1nnn(C)c1-c1cnc2c(-c3ccc(CC(=O)O)cc3)cn(CC3(F)CCC(F)(F)CC3)c2c1` [P-0812, 2-[4-[6-(3,5-dimethyltriazol-4-yl)-1-[(1,4,4-trifluorocyclohexyl)methyl]pyrrolo[3,2-b]pyridin-3-yl]phenyl]acetic acid], the IC50 (bromodomain; [1]) is reported as under 10 µM.

Molecule `Cc1noc(C)c1-c1cnc2c(-c3ccc(C(=O)O)cc3)cn([C@@H](C)c3ccccn3)c2c1` [P-0511, 4-[6-(3,5-dimethylisoxazol-4-yl)-1-[(1S)-1-(2-pyridyl)ethyl]pyrrolo[3,2-b]pyridin-3-yl]benzoic acid] has an IC50 (bromodomain) of under 10 µM and an IC50 (MV-4-11 cells; [4]) of under 1 µM.

`[2H]c1c([2H])c([2H])c(C([2H])(n2cc(-c3ccc(C(=O)O)cc3)c3ncc(-c4c(C)noc4C)cc32)C([2H])([2H])[2H])c([2H])c1[2H]` (stereo not drawn) [P-0607, 4-[6-(3,5-dimethylisoxazol-4-yl)-1-[1,2,2,2-tetradeuterio-1-(2,3,4,5,6-pentadeuteriophenyl)ethyl]pyrrolo[3,2-b]pyridin-3-yl]benzoic acid] showed an IC50 (bromodomain; [1]) of under 10 µM and an IC50 (MV-4-11 cells; [3]) of under 1 µM.

`Cc1noc(C)c1-c1cnc2c(-c3ccc4c(c3)CCOC4=O)cn(CC3CCCCC3)c2c1` [P-0799, 6-[1-(cyclohexylmethyl)-6-(3,5-dimethylisoxazol-4-yl)pyrrolo[3,2-b]pyridin-3-yl]isochroman-1-one] showed an IC50 (bromodomain; [1]) of under 10 µM.

`Cc1noc(C)c1-c1cnc2c(-c3ccc(P(=O)(O)O)cc3)cn(CC3CCCCC3)c2c1` [P-0701, [4-[1-(cyclohexylmethyl)-6-(3,5-dimethylisoxazol-4-yl)pyrrolo[3,2-b]pyridin-3-yl]phenyl]phosphonic acid] showed an IC50 (bromodomain; [1]) of under 10 µM.

With `Cc1noc(C)c1-c1ccc2c(-c3cnn(C)c3)cn(S(=O)(=O)c3ccccc3)c2c1` [P-0230, 4-[1-(benzenesulfonyl)-3-(1-methylpyrazol-4-yl)indol-6-yl]-3,5-dimethyl-isoxazole] the IC50 (bromodomain; [1]) was under 10 µM.

`CCOC(=O)c1ccc(-c2cn([C@H](c3ccccc3)c3ccccn3)c3cc(-c4c(C)noc4C)ccc23)cc1` [P-0756, ethyl 4-[6-(3,5-dimethylisoxazol-4-yl)-1-[(R)-phenyl(2-pyridyl)methyl]indol-3-yl]benzoate] showed an IC50 (bromodomain; [1]) of under 10 µM.
